We go through 36 molecules from patent US20030134859A1 (SANKYO COMPANY, LIMITED, priority 2000, published 2003).

Structures can show the parent of a compound that is named as a salt.

One experiment concerns Rat white adipocytes. In words: Stimulation of differentiation of the adipocytes (Oil Red O). Conditions: Rattus norvegicus, Adipocyte, 120 h, 100 nM test compound; 5 days; Oil Red O ABS550; control = 100%, blank = 0%; Table 7; read-out: Rate of Differentiation (%). The experiment is classed as cell-based. A digest of the protocol:
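Oil Red O lipid staining, absorbance 550 nm after DMSO extraction, quantified differentiation of rat white adipocytes exposed 5 days to compound (final 100 nM, 0.1% DMSO) in differentiation medium. Percent differentiation normalised between cell-free blank (0%) and DMSO control (100%).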
`Cc1cnc(NC(=O)c2cc([N+](=O)[O-])ccc2Cl)s1` [Example 4, N-(5-Methylthiazol-2-yl)-(2-chloro-5-nitrophenyl)carboxamide]: the activity at 0.1 µM was determined as 128%. Still for that read-out and setting: to `Cc1ccnc(NC(=O)c2cc([N+](=O)[O-])ccc2Cl)n1` [Example 65, N-(4-Methylpyrimidin-2-yl)-(2-chloro-5-nitrophenyl)carboxamide] belongs 112%. Same read-out and setting: for `CC(C)(C)c1cc(NC(=O)c2cc([N+](=O)[O-])ccc2Cl)cc(C(C)(C)C)c1O` [Example 29, N-(3,5-Di-t-butyl-4-hydroxyphenyl)-(2-chloro-5-nitrophenyl)carboxamide] the value was 111%; for `Cn1c(NC(=O)c2cc([N+](=O)[O-])ccc2Cl)nc2ccccc21` [Example 82, N-(1-Methylbenzimidazol-2-yl)-(2-chloro-5-nitrophenyl)carboxamide], 114%. Same read-out and setting: for `O=C(Nc1ccc(S(=O)(=O)Nc2nccs2)cc1)c1cc([N+](=O)[O-])ccc1Cl` [Example 96, N-[4-(Thiazol-2-yl)aminosulfonyl]phenyl-(2-chloro-5-nitrophenyl)carboxamide] the value was 123%; for `Cc1ccc(NC(=O)c2cc([N+](=O)[O-])ccc2Cl)nc1` [Example 52, N-(5-Methylpyridin-2-yl)-(2-chloro-5-nitrophenyl)carboxamide], 133%; for `COC(=O)c1sccc1NC(=O)c1cc([N+](=O)[O-])ccc1Cl` [Example 66, N-(2-Methoxycarbonylthiophen-3-yl)-(2-chloro-5-nitrophenyl)carboxamide], 113%. For the molecule `O=C(Nc1ccc(NC(=O)c2cc([N+](=O)[O-])ccc2Cl)cc1)c1ccccc1` [Example 119, N-(4-Benzoylaminophenyl)-(2-chloro-5-nitrophenyl)carboxamide], the activity at 0.1 µM is 135%.

The test system of another experiment is Rat white adipocytes. In words: Inhibition of the differentiation of adipocytes (Oil Red O). The experiment is classed as cell-based. The settings on record: 100 nM test compound; 5 days; Oil Red O ABS550; control = 100%, blank = 0%; Table 3. In outline: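 Rat white preadipocytes, 5,000 cells/well, given differentiation medium with compound at 100 nM final (0.1% DMSO) for 5 days at 37 °C. Lipid stained with Oil Red O, eluted in DMSO, read at 550 nm; differentiation % relative to DMSO control (100%) and blank (0%).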
As for `CCCCCCCCN(CCCC)c1ccc(-c2ccc(NC(=O)c3cc([N+](=O)[O-])ccc3Cl)cc2)cc1.Cl` [Example 223, N-[4-[4-(N-Butyl-N-octylamino)phenyl]phenyl]-(2-chloro-5-nitrophenyl)carboxamide mono-hydrochloride], the “Rate of Differentiation (%)” value is recorded as 35.0%. The same measure, in the same setting: to “N-(Ethoxyphenyl)-(2-chloro-5-nitrophenyl)carboxamide [Example 229]” belongs 62.7%.

Staying with this experiment, now noted: Rattus norvegicus, Adipocyte, 120 h, 100 nM test compound; 5 days; Oil Red O ABS550; control = 100%, blank = 0%; Table 3; read-out: Rate of Differentiation (%).
Consider `Nc1nc(-c2cccc(NC(=O)c3cc([N+](=O)[O-])ccc3Cl)c2)cs1` [Example 233, N-[3-(2-Amiothiazol-4-yl)phenyl]-(2-chloro-5-nitrophenyl)carboxamide], for which the activity at 0.1 µM was determined as 47.4%. The same measure, in the same setting: for `CCCCCCNc1ccc(-c2ccc(NC(=O)c3cc([N+](=O)[O-])ccc3Cl)cc2)cc1` [Example 195, N-[4-[4-(N-Hexylamino)phenyl]phenyl]-(2-chloro-5-nitrophenyl)carboxamide] the value was 36.5%; for `Nc1ccc(NC(=O)c2cc([N+](=O)[O-])ccc2Cl)cc1` [Example 58, N-(4-Aminophenyl)-(2-chloro-5-nitrophenyl)carboxamide mono-hydrochloride], 51.7%; for `O=C(Nc1ccc(-n2ccnc2)cc1)c1cccc(NC(=O)c2cc([N+](=O)[O-])ccc2Cl)c1` [Example 231, N-[[3-[4-(Imidazol-1-yl)phenyl]aminocarbonyl]phenyl]-(2-chloro-5-nitrophenyl)carboxamide], 20.1%. On the same count and under the same terms, to `O=C(Nc1ccc(-c2ccc(NC(=S)Nc3ccncc3)cc2)cc1)c1cc([N+](=O)[O-])ccc1Cl` [Example 258, N-[4-[4-[(Pyridin-4-yl)aminothiocarbonylamino]phenyl]phenyl]-(2-chloro-5-nitrophenyl)carboxamide] belongs 39%; to `CCCCCCCCN(CCC)c1ccc(-c2ccc(NC(=O)c3cc([N+](=O)[O-])ccc3Cl)cc2)cc1` [Example 224, N-[4-[4-(N-Octyl-N-propylamino)phenyl]phenyl]-(2-chloro-5-nitrophenyl)carboxamide], 40.9%.

Consider `CCCCCCN(CC)c1ccc(-c2ccc(NC(=O)c3cc([N+](=O)[O-])ccc3Cl)cc2)cc1` [Example 197, N-[4-[4-(N-Ethyl-N-hexylamino)phenyl]phenyl]-(2-chloro-5-nitrophenyl)carboxamide], for which the activity at 0.1 µM worked out at 45.7%. The same measure, in the same setting: to `O=C(Nc1ccc(NC(=S)Nc2cccnc2)cc1)c1cc([N+](=O)[O-])ccc1Cl` [Example 257, N-[4-[(Pyridin-3-yl)aminothiocarbonylamino]phenyl]-(2-chloro-5-nitrophenyl)carboxamide] belongs 59.8%.

In the case of `CCN(c1ccc(NS(=O)(=O)c2ccc(NC(=O)c3cc([N+](=O)[O-])ccc3Cl)cc2)cc1)C(C)C` [Example 232, N-[[4-[4-(N-Ethyl-N-isopropylamino)phenyl]aminosulfonyl]phenyl]-(2-chloro-5-nitrophenyl)carboxamide], the activity at 0.1 µM is 45.4%. On to `O=C(Nc1ccc(N2CCN(C(=O)c3ccncc3)CC2)cc1)c1cc([N+](=O)[O-])ccc1Cl` [Example 228, N-[4-[4-(Pyridin-4-ylcarbonyl)piperazin-1-yl]phenyl]-(2-chloro-5-nitrophenyl)carboxamide], for which the activity at 0.1 µM stood at 17.5%. Regarding `NCCc1ccc(NC(=O)c2cc([N+](=O)[O-])ccc2Cl)cc1` [Example 267, N-[4-(2-Aminoethyl)phenyl]-(2-chloro-5-nitrophenyl)carboxamide], the activity at 0.1 µM was 47.3%. The same measure, in the same setting: to `CCCCCCN(C)c1ccc(-c2ccc(NC(=O)c3cc([N+](=O)[O-])ccc3Cl)cc2)cc1` [Example 196, N-[4-[4-(N-Hexyl-N-methylamino)phenyl]phenyl]-(2-chloro-5-nitrophenyl)carboxamide] belongs 53.4%; to `CCCCCCCCNc1ccc(-c2ccc(NC(=O)c3cc([N+](=O)[O-])ccc3Cl)cc2)cc1` [Example 219, N-[4-[4-(N-Octylamino)phenyl]phenyl]-(2-chloro-5-nitrophenyl)carboxamide], 36.6%; to `O=C(Nc1ccc(CCNC(=S)Nc2cccnc2)cc1)c1cc([N+](=O)[O-])ccc1Cl` [Example 273, N-[4-[2-(Pyridin-3-yl)aminothiocarbonylaminoethyl]phenyl]-(2-chloro-5-nitrophenyl)carboxamide], 47.9%. As to `N#Cc1ccc(NC(=O)c2cc([N+](=O)[O-])ccc2Cl)cc1` [Example 20, N-(4-Cyanophenyl)-(2-chloro-5-nitrophenyl)carboxamide], the activity at 0.1 µM turned out to be 57.7%. As to `CCCCCCCCN(CCCCCC)c1ccc(-c2ccc(NC(=O)c3cc([N+](=O)[O-])ccc3Cl)cc2)cc1` [Example 220, N-[4-[4-(N-Hexyl-N-octylamino)phenyl]phenyl]-(2-chloro-5-nitrophenyl)carboxamide mono-hydrochloride], the activity at 0.1 µM was determined as 38.4%. Same read-out and setting: for `O=C(Nc1ccc(CCO)cc1)c1cc([N+](=O)[O-])ccc1Cl` [Example 230, N-[4-(2-Hydroxyethyl)phenyl]-(2-chloro-5-nitrophenyl)carboxamide] the value was 48.9%; for `CC(C)(C)OC(=O)Nc1ccc(-c2ccc(NC(=O)c3cc([N+](=O)[O-])ccc3Cl)cc2)cc1` [Example 87, N-[4-[4-(tert-Butoxycarbonylamino)phenyl]phenyl]-(2-chloro-5-nitrophenyl)carboxamide], 75.2%. Same read-out and setting: for `CCCCCCCCN(CC)c1ccc(-c2ccc(NC(=O)c3cc([N+](=O)[O-])ccc3Cl)cc2)cc1` [Example 225, N-[4-[4-(N-Ethyl-N-octylamino)phenyl]phenyl]-(2-chloro-5-nitrophenyl)carboxamide] the value was 45.9%. The same measure, in the same setting: to `CC(C)(C)OC(=O)Nc1cccc(-c2csc(NC(=O)c3cc([N+](=O)[O-])ccc3Cl)n2)c1` [Example 234, N-[4-(3-tert-Butoxycarbonylaminophenyl)thiazol-2-yl]-(2-chloro-5-nitrophenyl)carboxamide] belongs 60.5%; to `O=C(Nc1ccc(NC(=S)Nc2ccncc2)cc1)c1cc([N+](=O)[O-])ccc1Cl` [Example 259, N-[4-[(Pyridin-4-yl)aminothiocarbonylamino]phenyl]-(2-chloro-5-nitrophenyl)carboxamide], 56.5%. For the molecule `Cc1ccc2nc(-c3ccc(NC(=O)c4cc([N+](=O)[O-])ccc4Cl)cc3)sc2c1` [Example 10, N-[4-(6-Methylbenzothiazol-2-yl)phenyl]-(2-chloro-5-nitrophenyl)carboxamide], the activity at 0.1 µM came out at 51.1%. The same measure, in the same setting: to `O=C(Nc1cccc(O)c1)c1cc([N+](=O)[O-])ccc1Cl` [Example 191, N-(3-Hydroxyphenyl)-(2-chloro-5-nitrophenyl)carboxamide] belongs 63.4%; to `CC(O)c1cccc(NC(=O)c2cc([N+](=O)[O-])ccc2Cl)c1` (stereo not drawn) [Example 239, N-[3-(1-Hydroxyethyl)phenyl]-(2-chloro-5-nitrophenyl)carboxamide], 52.8%; to `CS(=O)(=O)N(c1ccc(-c2ccc(NC(=O)c3cc([N+](=O)[O-])ccc3Cl)cc2)cc1)S(C)(=O)=O` [Example 235, N-[4-[4-(N,N-Dimethanesulfonylamino)phenyl]phenyl]-(2-chloro-5-nitrophenyl)carboxamide], 3.6%. The same measure, in the same setting: for `CCCCCCCCN(CCCC)c1ccc(-c2ccc(NC(=O)c3cc([N+](=O)[O-])ccc3Cl)cc2)cc1` [Example 222, N-[4-[4-(N-Butyl-N-octylamino)phenyl]phenyl]-(2-chloro-5-nitrophenyl)carboxamide] the value was 48.6%.
